From patent US20100329971A1, “NOVEL HYDROXY RADICAL GENERATION METHOD, AND ANTI-VIRAL MATERIAL UTILIZING HYDROXYL RADICAL GENERATED BY THE METHOD” (MOCHIGASE CO., LTD., priority 2008, published 2010) come the findings set out here.

The nature of experiment [1]: Amount of generated hydroxyl radicals under shaded condition or room light, HPF reagent (Example 14). The following applies: measured 1 hour after preparation.
Experiment [2] is described as follows: Duration of hydroxyl radical generation, HPF reagent (Example 16). The following applies: shaded, 100% = 0.1% titanium oxide irradiated with room light 30 minutes.
Experiment [3] can be described thus: Quantification of hydroxyl radical production by HPF fluorescence intensity (Examples 13 and 18). Particulars: HPF 5 μM, room temperature 15 minutes; for Amount of generated radicals: 0.1 M phosphoric acid buffer, fluorescence intensity.
The nature of experiment [4]: Amount of generated hydroxyl radicals using metal oxides and hydroxides, HPF reagent (Example 15). Particulars: left shaded for 1 hour; 100% = 0.1% titanium oxide irradiated with room light 30 minutes.
Experiment [5] is described as follows: Amount of generated hydroxyl radicals using combinations of calcium hydroxide, magnesium oxide and magnesium hydroxide (Example 17). The following applies: left shaded for 72 hours; total 1% by weight; only calcium hydroxide = 100%. Here is the method:
Specifically, each reagent was mixed as described below to prepare a specimen to be measured using a suspension of a metal oxide and/or a hydroxide in a manner similar to Example 15. HPF reagent (Daiichi Pure Chemicals Co., Ltd.): 0.1 μL 0.5 M phosphoric acid buffer (pH 7.0): 20 μL Pure water: 49.9 μL Each suspension: 30 μL Table 7 indicates the concentrations and amounts of metal oxide and/or hydroxide in each specimen to be measured. [table]

For a further experiment, the target named is spike proteins (Severe acute respiratory syndrome coronavirus, UniProt P59594).
The mark [6] stands for this setting: Shaded, 100% = 0.1% titanium oxide irradiated 30 minutes.

SMILES strings stand for the structures. Marks after values point to notes of the source that are not given here.

With `[O]=[Ti]=[O]` [0.1% titanium oxide, titanium oxide], the “Amount of generated hydroxyl radicals” value in experiment [1] (Irradiated with room light for 30 minutes then shaded, this value assumed to be 100%) was 100^1) %; in experiment [1] (setting [6]), 3.92%.

Regarding `[Ca+2].[OH-].[OH-]` [Calcium hydroxide (1%), calcium hydroxide], in experiment [2], the “Amount of generated hydroxyl radicals (% of control) After 1 hour” value (shortened to “Amount … (% of control) After 1 hour”) is recorded as 14.27 % of control and the “Amount of generated hydroxyl radicals (% of control) After 12 hours” value (“Amount … (% of control) After 12 hours” below) was 47.49 % of control. In addition, in experiment [3], the “Amount of generated radicals” value is on record as 6236. In experiment [4], the “Amount of generated hydroxyl radicals (% of control)” value is 14.27 % of control. Moreover, the “Amount of generated hydroxyl radicals % of activity in Ca(OH)2” value in experiment [5] is 100.00 % of activity in Ca(OH)2.

Consider `[Mg+2].[OH-].[OH-]` [Magnesium hydroxide (1%), magnesium hydroxide], for which, in experiment [2], the “Amount … (% of control) After 1 hour” value is reported as 26.17 % of control and the “Amount … (% of control) After 12 hours” value is 62.18 % of control. For the same molecule, in experiment [3], the “Amount of generated radicals” value stood at 11907. Moreover, the “Amount of generated hydroxyl radicals” value in experiment [1] (setting [6]) came out at 28.33%. In addition, the “Amount of generated hydroxyl radicals (% of control)” value in experiment [4] is given as 26.17 % of control. Also, in experiment [5], the “Amount of generated hydroxyl radicals % of activity in Ca(OH)2” value was 144.14 % of activity in Ca(OH)2.

For the molecule `[O]=[Mg]` [Magnesium oxide (1%), magnesium oxide, reference compound], in experiment [2], the “Amount … (% of control) After 1 hour” value is 15.07 % of control and the “Amount … (% of control) After 12 hours” value was 34.15 % of control. In addition, the “Amount of generated radicals” value in experiment [3] is recorded as 3918. The “Amount of generated hydroxyl radicals (% of control)” value in experiment [4] is given as 15.07 % of control. For the same molecule, the “Amount of generated hydroxyl radicals % of activity in Ca(OH)2” value in experiment [5] is given as 77.84 % of activity in Ca(OH)2.

Turning to `[K+].[OH-]` [Potassium hydroxide (1%), potassium hydroxide], the “Amount of generated hydroxyl radicals (% of control)” value in experiment [4] is listed as 2.88 % of control.

On to `[Na+].[OH-]` [Sodium hydroxide (1%), sodium hydroxide], for which the “Amount of generated hydroxyl radicals (% of control)” value in experiment [4] was 3.29 % of control.

As for `O=C([O-])c1ccccc1O.[Na+]` [sodium salicylate], on spike proteins, the “bands corresponding to spike proteins, electrophoresis without a reducing agent” value is given as “recovery of bands corresponding to spike proteins was confirmed”.

As for `[Mg+2].[OH-].[OH-]` [specimen No. 7, magnesium hydroxide], in experiment [3] (comparison of specimens Nos. 7, 8 and 3), the “amounts of generated radicals (rank order)” value is listed as “specimen No. 7>specimen No. 8>specimen No. 3”.
